Laboratory results: US8084429B2, “Compounds and their analgesic applications” (priority 2002, dated 2011)
Starred links: 1 amine or outer side, 2 acyl side, 3 side chain; linkers in the order of their positions; H or OH if unused. Positions of bridges follow the written chain, without caps; N, C: chain ends. Non-standard residues stand in square brackets, D forms with d. Residues, ends and D or L forms follow the SMILES beside them. Chains are numbered I, II in the order given. NHNH = N(N[*:2])[*:1]

System: rat
Assay: observation of undesirable effects after intrathecal administration
Assay type: in vivo
Procedure: A silicone catheter was introduced into the intrathecal space of a rat in the cervical region of the spine, having an external diameter of 0.64 mm and an internal diameter of 0.3 mm. The 12 cm long catheter was prepared in the following way: at a distance of 7.5 cm from the end of the catheter, a flange was made around it with soft silicone glue. The remaining 4.5 cm stretch of the catheter was extended to the outside and connected to a 30G needle mounted on a 25 microliter Hamilton syringe. The implantation of the catheter was made under general anaesthesia. After shaving the coat from the shoulders and neck, the rat was placed in a stereotactic apparatus. The 1.5 cm long incision was made centrally, front to rear, along the axis of the spine. After reaching the muscles, they were prised apart and access to the basal membrane was prepared. The basal membrane was incised. The prepared catheter, filled with a sterile physiological saline solution, was inserted the through the incision in the membrane to a depth of 7.5 cm towards the rear, so that its end was found at the location of the L1. The muscle and skin were sutured. After recovery from general anaesthesia the rats were placed in separate cages. Biphaline was administered and measurements were made during the second day following the operation. All epidural injections were made at a constant volume of 10 microliters. Following the injection, the catheter was rinsed with 15 microliters of sterile physiological saline solution. Analgesis was measured in relation to a tail retraction test to which a thermal stimulus was applied in the form of a beam of light with a temperature of 55° C. The temperature and focus of the light was such that the time of reaction of the rat fit within the 2-3 second margin. The maximum time that the tail was agitated with the pain-stimulating light stimulus was set as 7 seconds, so as not to cause tail burns connected with a prolonged exposure of tissues to temperature. The pain-stimulating stimulus threshold was determined previous to administration of the compounds, as well as at the 5, 15, 30, 60 and 120 minutes following the administration. The degree of analgesis was expressed as a percent of the maximum possible effect (denoted as % MPE) according to the following equation: […]

SMILES: C[C@@H](NC(=O)[C@@H](N)Cc1ccc(O)cc1)C(=O)NCC(=O)N[C@@H](Cc1ccccc1)C(=O)NNC(=O)[C@H](Cc1ccccc1)NC(=O)CNC(=O)[C@@H](C)NC(=O)[C@@H](N)Cc1ccc(O)cc1 [biphaline, (Tyr-D-Ala-Gly-Phe-NH-)2]
- undesirable effects (0.005 micrograms, then 0.003 micrograms every half hour for 8 hours, intrathecal): No undesirable effects were observed
- undesirable effects (0.5 micrograms intrathecal): No undesirable effects were observed
- duration of stiffness (25 micrograms intrathecal): 4 h
- muscle stiffness (25 micrograms intrathecal, after three minutes following the injection): stiffness of limb and back muscles was observed
- respiratory ability (25 micrograms intrathecal, during stiffness): respiratory ability was maintained
- respiratory depression (extremely high dosages, as much as a thousand-fold the minimal effective analgesic dose): did not cause respiratory depression

SMILES: CSCC[C@@H](NC(=O)[C@@H](N)Cc1ccc(O)cc1)C(=O)NCC(=O)N[C@@H](Cc1ccccc1)C(=O)NNC(=O)[C@H](Cc1ccccc1)NC(=O)CNC(=O)[C@@H](CCSC)NC(=O)[C@@H](N)Cc1ccc(O)cc1 [(Tyr-D-Met-Gly-Phe-NH—)2, (Tyr-D-Met-Gly-Phe-NH-)2] (I: H-Y[dM]GF / II: H-Y[dM]GF; linker I:C-II:C via NHNH)
- undesirable effects (0.05 micrograms intrathecal): No undesirable effects were observed

SMILES: C[C@H](O)[C@@H](NC(=O)[C@@H](N)Cc1ccc(O)cc1)C(=O)NCC(=O)N[C@@H](Cc1ccccc1)C(=O)NNC(=O)[C@H](Cc1ccccc1)NC(=O)CNC(=O)[C@H](NC(=O)[C@@H](N)Cc1ccc(O)cc1)[C@H](C)O [(Tyr-D-Thr-Gly-Phe-NH—)2, (Tyr-D-Thr-Gly-Phe-NH-)2] (I: H-Y[dT]GF / II: H-Y[dT]GF; linker I:C-II:C via NHNH)
- undesirable effects (0.05 micrograms intrathecal): No undesirable effects were observed

SMILES: NC(=O)CC[C@@H](NC(=O)[C@@H](N)Cc1ccc(O)cc1)C(=O)NCC(=O)N[C@@H](Cc1ccccc1)C(=O)NNC(=O)[C@H](Cc1ccccc1)NC(=O)CNC(=O)[C@@H](CCC(N)=O)NC(=O)[C@@H](N)Cc1ccc(O)cc1 [(Tyr-D-Gln-Gly-Phe-NH—)2, (Tyr-D-Gln-Gly-Phe-NH-)2] (I: H-Y[dQ]GF / II: H-Y[dQ]GF; linker I:C-II:C via NHNH)
- undesirable effects (0.05 micrograms intrathecal): No undesirable effects were observed

SMILES: CC(C)C[C@@H](NC(=O)[C@@H](N)Cc1ccc(O)cc1)C(=O)NCC(=O)N[C@@H](Cc1c[nH]c2ccccc12)C(=O)NNC(=O)[C@H](Cc1c[nH]c2ccccc12)NC(=O)CNC(=O)[C@@H](CC(C)C)NC(=O)[C@@H](N)Cc1ccc(O)cc1 [(Tyr-D-Leu-Gly-Trp-NH—)2, (Tyr-D-Leu-Gly-Trp-NH-)2] (I: H-Y[dL]GW / II: H-Y[dL]GW; linker I:C-II:C via NHNH)
- undesirable effects (0.05 micrograms intrathecal): No undesirable effects were observed
